Each structure is given as a SMILES string. Some results are limits rather than exact numbers.

The values below come from patent US20220087996A1, “Histone acetylase p300 inhibitor and use thereof” (HINOVA PHARMACEUTICALS INC., priority 2018, published 2022).

One test concerns CWR22RV1 cells. In words: Inhibition of proliferation of CWR22RV1 cells (CCK-8). It counts as cell-based, human. As to conditions: 6 days culture, read-out: IC50 against CWR22RV1 cells. On the procedure:
1) CWR22RV1 cells were subcultured in cell culture medium, and the cells in good growth condition were seeded in a 96-well plate, 80 μL for each well, and the cell number in each well was 1500. The plate was incubated overnight in a 37° C., 5% CO2 cell incubator. 2) The drug was prepared as 30 mM stock solution with dimethyl sulfoxide (DMSO). Prior to use, the stock solution was diluted 3 times with DMSO, and then further diluted as 3-fold gradient to obtain 9 concentration gradients. Then, each concentration of compound was diluted 200 times with the culture solution (ensuring that the DMSO concentration in the culture system was 0.1%), and two replicate wells were set for each concentration. 20 μL of diluted compound solution was added to the cell culture well (with final concentrations of 10 μM, 3.3 μM. 1.1 μM . . . ), and the plate was gently shaken to mix. In addition, 3 negative control wells containing only cells and 3 blank control wells containing only culture medium were included (6 wells were each added 20 μL DMSO diluted 200 times with culture medium). 2. Result detection: (1) After culturing for 6 days, 10 μL CCK-8 was added to each well, and the plate was continually cultured in a 37° C., 5% CO2 cell incubator for 2.5 h. (2) The absorbance (OD value) was detected at 450 nm using a multifunctional microplate reader. (3) The data were analyzed by Dose-response-inhibition equation in the software GraphPad Prism6, and the IC50 value was obtained.
As for `CNC(=O)Nc1ccc2c(c1)CC[C@@]21OC(=O)N(CC(=O)N2CCCC2c2ccccc2C)C1=O` (some centres unmarked) [Example 324], the IC50 – broadly, the midpoint of a concentration-inhibition curve – is over 2 µM.

Staying with this test, now noted: Homo sapiens, CWR22Rv1, 144 h, 6 days culture, read-out: IC50 against CWR22RV1 cells.
With `CNC(=O)Nc1ccc2c(c1)CC[C@@]21OC(=O)N(CC(=O)NC2C(C)(C)C(O)C2(C)C)C1=O` (stereo partly drawn) [Example 105, (R)—N-(3-hydroxyl-2,2,4,4-tetramethylcyclobutyl)-2-(5-(3-Methylureido)-2′,4′-dioxo-2,3-dihydrospiro[indene-1,5′-oxazole]-3′-yl)acetamide], the IC50 is over 2 µM.

With `CNC(=O)Nc1ccc2c(c1)CC[C@@]21OC(=O)N(CC(=O)N2CCC2c2ccccc2)C1=O` (some centres unmarked) [Example 106], the IC50 is over 2 µM.

Regarding `CNC(=O)Nc1ccc2c(c1)CC[C@@]21OC(=O)N(CC(=O)N2CCOC[C@@H]2c2ccccc2)C1=O` [Example 107], the IC50 is over 2 µM.

In the case of `CNC(=O)Nc1ccc2c(c1)CC[C@@]21OC(=O)N(CC(=O)N2C(C(C)(C)C)OC[C@@H]2c2ccccc2)C1=O` (some centres unmarked) [Example 108], the IC50 is over 2 µM.

Turning to `CNC(=O)Nc1ccc2c(c1)CC[C@@]21OC(=O)N(CC(=O)N2CCCc3cc(-c4ccn(C)n4)c(C(F)(F)F)cc32)C1=O` [Example 109, (R)-1-methyl-3-(3′-(2-(6-(1-methyl-1H-pyrazol-3-yl)-7-(trifluoromethyl)-3,4-dihydroquinolin-1-(2H)-yl)-2-oxoethyl)-2′,4′-dioxo-2,3-dihydrospiro[indene-1,5′-oxazolidine]-5-yl)urea], the IC50 was over 2 µM.

As to `CNC(=O)Nc1ccc2c(c1)CC[C@@]21OC(=O)N(Cc2ncc(-c3ccccc3)[nH]2)C1=O` [Example 110, (R)-1-(2′,4′-dioxo-3′-((5-phenyl-1H-imidazol-2-yl)methyl)-2,3-dihydrospiro[indene-1,5′-oxazolidine]-5-yl)-3-methylurea], the IC50 is over 2 µM.

Regarding `CNC(=O)Nc1ccc2c(c1)CC[C@@]21OC(=O)N(CC(=O)N2CCCC2c2nccn2C)C1=O` (some centres unmarked) [Example 111], the IC50 was over 2 µM.

`CNC(=O)Nc1ccc2c(c1)CC[C@@]21OC(=O)N(CC(=O)N2CCCC2c2cccc3c2OCO3)C1=O` (some centres unmarked) [Example 112]: the IC50 was over 2 µM.

With `Cc1nnn(C)c1-c1ccc2c(c1)CC[C@@]21OC(=O)N(CC(=O)N2[C@@H](C)CC[C@H]2c2ccc(F)cc2)C1=O` [Example 221, (R)-5-(1,4-dimethyl-1H-1,2,3-triazole-5-yl)-3′-(2-((2S,5S)-2-(4-fluorophenyl)-5-methylpyrrolidin-1-yl)-2-oxoethyl)-2,3-dihydrospiro[indene-1,5′-oxazolidine]-2′,4′-dione], the IC50 is over 2 µM.

For `CNC(=O)Nc1ccc2c(c1)CC[C@@]21OC(=O)N(CC(=O)N2CCCc3ccc(C(F)(F)F)cc32)C1=O` [Example 300, (R)-1-(2′,4′-dioxo-3′-(2-oxo-2-(7-(trifluoromethyl)-3,4-dihydroquinolin-1(2H)-yl)ethyl)-2,3-dihydrospiro[indene-1,5′-oxazolidine]-5-yl)-3-methylurea], the IC50 was over 2 µM.

Regarding `CNC(=O)Nc1ccc2c(c1)CC[C@@]21OC(=O)N(CC(=O)N2CCCc3cc(-c4cnn(C)c4)ccc32)C1=O` [Example 302, (R)-1-methyl-3-(3′-(2-(6-(1-methyl-1H-pyrazol-4-yl)-3,4-dihydroquinolin-1 (2H)-yl)-2-oxoethyl)-2′,4′-dioxo-2,3-dihydrospiro[indene-1,5′-oxazolidine]-5-yl)urea], the IC50 is over 2 µM.

Turning to `CNC(=O)Nc1ccc2c(c1)CC[C@@]21OC(=O)N(CC(=O)N2CCCC2c2ccccc2)C1=O` (stereo partly drawn) [Example 303, 1-((1R)-2′,4′-dioxo-3′-(2-oxo-2-(2-phenylpyrrolidin-1-yl)ethyl)-2,3-dihydrospiro[indene-1,5′-oxazolidine]-5-yl)-3-methylurea], the IC50 is 0.5 to 2 µM.

`CNC(=O)Nc1ccc2c(c1)CC[C@@]21OC(=O)N(CC(=O)N2Cc3cccnc3C2)C1=O` [Example 304, (R)-1-(2′,4′-dioxo-3′-(2-oxo-2-(5H-pyrrolo[3,4-b]pyridin-6(7H)-yl)ethyl)-2,3-dihydrospiro[indene-1,5′-oxazolidine]-5-yl)-3-methylurea]: the IC50 was over 2 µM.

Take `CNC(=O)Nc1ccc2c(c1)CC[C@]21OC(=O)N(CC(=O)N2Cc3cccnc3C2)C1=O` [Example 305, (S)-1-(3′-(2-(5,7-dihydro-6H-pyrrolo[3,4-b]pyridin-6-yl)-2-oxoethyl)-2′,4′-dioxo-2,3-dihydrospiro[indene-1,5′-oxazolidine]-5-yl)-3-methylurea]: the IC50 is over 2 µM.

For the compound `CNC(=O)Nc1ccc2c(c1)CC[C@@]21OC(=O)N(CC(=O)N2CCC[C@@H]2c2ccccc2)C1=O` [Example 306, 1-((R)-2′,4′-dioxo-3′-(2-oxo-2-((R)-2-phenylpyrrolidin-1-yl)ethyl)-2,3-dihydrospiro[indene-1,5′-oxazolidine]-5-yl)-3-methylurea], the IC50 is over 2 µM.

Consider `Cc1noc(C)c1-c1ccc2c(c1)C1(CC1)CC21OC(=O)N(CC(=O)N(Cc2ccc(F)cc2)[C@@H](C)C(F)(F)F)C1=O` (stereo partly drawn) [Example 308, 2-(5-(3,5-dimethylisoxazol-4-yl)-2′,4′-dioxo-2,3-dihydrospiro[cyclopropane-indene-1,5′-oxazole]-3′-yl)-N-(4-fluorobenzyl)-N—((S)-1,1,1-trifluoropropan-2-yl)acetamide], for which the IC50 is at most 0.5 µM.

Take `CNC(=O)Nc1ccc2c(c1)CC[C@]21OC(=O)N(CC(=O)N2CCC[C@@H]2c2ccccc2)C1=O` [Example 309, 1-((S)-2′,4′-dioxo-3′-(2-oxo-2-((R)-2-phenylpyrrolidin-1-yl)ethyl)-2,3-dihydrospiro[indene-1,5′-oxazolidine]-5-yl)-3-methylurea]: the IC50 fell in the range of 0.5 to 2 µM.

Take `CNC(=O)Nc1ccc2c(c1)CC[C@]21OC(=O)N(CC(=O)N2CCC[C@H]2c2ccccc2)C1=O` [Example 310, 1-((S)-2′,4′-dioxo-3′-(2-oxo-2-((S)-2-phenylpyrrolidin-1-yl)ethyl)-2,3-dihydrospiro[indene-1,5′-oxazolidine]-5-yl)-3-methylurea]: the IC50 was over 2 µM.

For `CNC(=O)Nc1ccc2c(c1)CC[C@]21OC(=O)N(CC(=O)N2CCc3ccccc3C2)C1=O` [Example 311, (S)-1-(3′-(2-(3,4-dihydroisoquinolin-2(1H)-yl)-2-oxoethyl)-2′,4′-dioxo-2,3-dihydrospiro[indene-1,5′-oxazolidine]-5-yl)-3-methylurea], the half-maximal inhibitory concentration (IC50) is over 2 µM.

Take `CNC(=O)Nc1ccc2c(c1)CC[C@]21OC(=O)N(CC(=O)N2C[C@H]3C[C@@H]2CO3)C1=O` [Example 315, 1-((S)-3′-(2-((1R,4R)-2-oxa-5-azabicyclo[2.2.1]heptan-5-yl)-2-oxoethyl)-2′,4′-dioxo-2,3-dihydrospiro[indene-1,5′-oxazolidine]-5-yl)-3-methylurea]: the IC50 was over 2 µM.

Turning to `CNC(=O)Nc1ccc2c(c1)CC[C@]21OC(=O)N(Cc2nnc(-c3ccccc3)o2)C1=O` [Example 317, (S)-1-(2′,4′-dioxo-3′-((5-phenyl-1,3,4-oxadiazol-2-yl)methyl)-2,3-dihydrospiro[indene-1,5′-oxazolidine]-5-yl)-3-methylurea], the IC50 is over 2 µM.

Consider `CNC(=O)Nc1ccc2c(c1)CC[C@@]21OC(=O)N(CC(=O)N2CCCC2c2cccc(C)c2)C1=O` (some centres unmarked) [Example 318], for which the IC50 was over 2 µM.

With `CNC(=O)Nc1ccc2c(c1)CC[C@@]21OC(=O)N(CC(=O)N2CCCCC2c2ccccc2)C1=O` (stereo partly drawn) [Example 322, 1-((1R)-2′,4′-dioxo-3′-(2-oxo-2-(2-phenylpiperidin-1-yl)ethyl)-2,3-dihydrospiro[indene-1,5′-oxazolidine]-5-yl)-3-methylurea], the IC50 was over 2 µM.

Regarding `CNC(=O)Nc1ccc2c(c1)CC[C@@]21OC(=O)N(CC(=O)N2CCCC2c2ccccc2F)C1=O` (stereo partly drawn) [Example 323, 1-((1R)-3′-(2-(2-(2-fluorophenyl)pyrrolidin-1-yl)-2-oxoethyl)-2′,4′-dioxo-2,3-dihydrospiro[indene-1,5′-oxazolidine]-5-yl)-3-methylurea], the IC50 is over 2 µM.

In the case of `CNC(=O)Nc1ccc2c(c1)CC[C@@]21OC(=O)N(CC(=O)N2CCC[C@H]2C(=O)N2CC3CC2CO3)C1=O` (stereo partly drawn) [Example 328, 1-(3′-(2-((2S)-2-(2-oxa-5-azabicyclo[2.2.1]heptan-5-carbonyl)pyrrolidin-1-yl)-2-oxoethyl)-2′,4′-dioxo-2,3-dihydrospiro[indene-1,5′-oxazolidine]-5-yl)-3-methylurea], the IC50 was over 2 µM.

As for `CNC(=O)Nc1ccc2c(c1)CCC21OC(=O)N(CC(=O)N2CCCC2c2ncc[nH]2)C1=O` (centres unmarked) [Example 330, 1-(3′-(2-(2-(1H-imidazol-2-yl)pyrrolidin-1-yl)-2-oxoethyl)-2′,4′-dioxo-2,3-dihydrospiro[indene-1,5′-oxazolidine]-5-yl)-3-methylurea], the IC50 was over 2 µM.

In the case of `CNC(=O)Nc1ccc2c(c1)CC[C@@]21OC(=O)N(CC(=O)N2CCC[C@H]2C#N)C1=O` [Example 331, 1-((R)-3′-(2-((S)-2-cyanopyrrolidin-1-yl)-2-oxoethyl)-2′,4′-dioxo-2,3-dihydrospiro[indene-1,5-oxazolidine]-5-yl)-3-methylurea], the IC50 was over 2 µM.

Still in this test, the particulars now being: Homo sapiens, CWR22Rv1, 144 h, 6 days culture, read-out: IC50 against CWR22RV1 cells (text).
As to `Cc1noc(C)c1-c1ccc2c(c1)C1(CC1)CC21OC(=O)N(CC(=O)N(Cc2ccc(F)cc2)[C@@H](C)C(F)(F)F)C1=O` (stereo partly drawn) [Example 308, 2-(5-(3,5-dimethylisoxazol-4-yl)-2′,4′-dioxo-2,3-dihydrospiro[cyclopropane-indene-1,5′-oxazole]-3′-yl)-N-(4-fluorobenzyl)-N—((S)-1,1,1-trifluoropropan-2-yl)acetamide], the IC50 was at most 0.5 µM.
